How the values were obtained:
[1] = tested on: KLC1 TPR domain (KLC1^TPR); assay: Fluorescence polarization binding to KLC1 TPR domain; details: 150 mM NaCl, pH 7.5, 20 °C
Description: (§1) Measurements were performed as previously described ([Pernigo et al., 2013]) with modifications as listed in Supplemental Experimental Procedures. […]
(§2) minutes with the addition of 15 µl of washed pre-equilibrated Protein-G Dynabeads. Beads were washed three times in IP buffer and then boiled in 50 µl 1X SDS-loading buffer. Samples were separated by SDS-PAGE and transferred to immobilon-PVDF membrane (Millipore) for western blotting. Primary antibodies listed above. HRP conjugated secondary antibodies were from Jackson. […]
(§3) Fluorescence polarization measurements […]
(§4) […] All fluorescence polarization (FP) measurements were carried out on a BMG Labtech PolarStar Omega plate reader at 20 °C by incubating 300 nM TAMRA-labeled peptides with His6-tagged KLC2TPR at increasing concentrations in 25 mM Hepes pH 7.5, 150 mM NaCl, 5 mM β-mercaptoethanol. […]
(§5) Four mouse brains were homogenized in 16 ml of ice cold Homogenization buffer (10 mM HEPES pH 7.4, 0.32 M sucrose, 2 mM EDTA plus protease inhibitors) then centrifuged at 1000 g for 15 min at 4 °C to form supernatant ‘S1’ and pellet ‘P1’. […] Samples of S1-P3 were taken at each stage and protein content measured by BCA assay and normalized to 1 mg/ml with 10 µg loaded on gels. […] Protein concentration and turbidity of fractions was analyzed at 280 and 340 nm respectively in a SynergyMx plate reader (BioTek). […]

[2] = biological target: T1, KLC2 TPR domain (KLC2^TPR) (Mus musculus, UniProt O88448); assay: Fluorescence polarization binding to KLC2 TPR domain; details: 150 mM NaCl, pH 7.5, 20 °C
T1 construct: amino acids V218 to K480) was amplified from a mouse; made in house; host or cells: E. coli (inferred from the pET28a vector
T1 sequence (O88448 217-478 limits assumed): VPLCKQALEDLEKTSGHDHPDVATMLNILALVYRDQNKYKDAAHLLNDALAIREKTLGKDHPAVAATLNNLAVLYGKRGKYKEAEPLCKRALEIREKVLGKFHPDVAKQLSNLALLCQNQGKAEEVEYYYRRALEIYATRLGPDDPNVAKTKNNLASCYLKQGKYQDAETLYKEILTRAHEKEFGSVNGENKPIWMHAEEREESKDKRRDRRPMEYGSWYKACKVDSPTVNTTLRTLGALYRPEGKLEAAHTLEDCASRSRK
Description: as §1, §2, §3, §4, §5

Substance: TAMRA-TRTLQWDTDPS [WD2^pept, peptide centered on the second tryptophan motif of DIC1]
- interaction with KLC1 TPR [1]: did not show an interaction
- interaction with KLC2 TPR [2]: did not show an interaction

— publication PMC4893161, “The Dynamic Localization of Cytoplasmic Dynein in Neurons Is Driven by Kinesin-1” (Neuron, 2016)
